Literature values, collected in patent US8003637B2, “Stabilized atypical antipsychotic formulation” (Handa Pharmaceuticals, LLC, priority 2008, dated 2011).
Read-outs that look alike come from different tables or passages of the source.

Conditions: Merck Index

Compound: O=C(O)/C=C/C(=O)O [fumaric acid, (E)-butenedioic acid]
- amount soluble in 100 grams of water (25° C.): 0.63 grams

Compound: O=C(O)CCC(=O)O [succinic acid, 1,4-butanedioic acid]
- volume of water in which 1 gram can dissolve (boiling water): 1 mL
- volume of water in which 1 gram can dissolve (cold water): 13 mL
